# Reference: patent US12037419B2 (The Feinstein Institutes for Medical Research, priority 2016, dated 2024)
# Key:
# human monocytes [1] = test: HMGB1-induced monocyte activation (cytokine mRNA by q-PCR, protein by ELISA/MSD); assay type: cell-based
# Procedure: (§1) Monocyte isolation and stimulation: Human PBMCs were obtained following institutional guidelines of the Feinstein Institute for Medical Research (Feinstein) and isolated from blood of healthy donors by density centrifugation (New York Blood Bank). Monocytes were negatively enriched using a human monocyte enrichment kit (Stem Cell Technology). Purity of monocytes (≥90% CD11b+CD14+LAIR-1+) was determined by flow cytometry. […] Splenic murine monocytes from wild type mice, RAGE deficient or LAIR-1 conditional knockout mice were isolated using EasySep mouse monocyte enrichment kit (Stem Cell Technology). C57BL/6 mice, Lysozyme2-Cre transgenic mice were purchased from Jackson Laboratory. Myeloid specific LAIR-1 conditional knockout mice (Lysozyme2-Cre×LAIR fl/fl) were bred and maintained in our facility (Feinstein) under specific pathogen-free conditions. RAGE deficient mice (Department of Medicine, Karolinska Institute Stockholm, Sweden) were maintained at Feinstein. Eight-to ten weeks old male mice were used for experiments. All animal procedures were approved by the Feinstein Institutional Animal Care and Use Committee.
# RT-PCR analysis and primers: Total RNA was extracted from cells (1-2×10^6 cells per sample) with an RNeasy kit (Qiagen, Venlo, Limburg, Netherlands) and cDNA was generated using an iScript cDNA synthesis kit (Bio-Rad laboratories). Real Time-PCR was performed on a Light Cycler 480 II (Roche) using Light Cycler 480 master mix with primers (Applied Biosystems) for IFNα1 (Hs00256882), IFNα7 (mm02525960), MX1 (Hs00182073, mm01217998), IL-6 (Hs00985639, mm99999064), TNFα (Hs00174128, mm00443258), IL-12a (Hs00168405), Mer (Hs01031973), PDL-1 (Hs01125301), IL-10 (Hs00961622), CD163 (Hs00174705), HPRT1 (Hs99999909, mm01545399) and Polr2a (Hs00172187). The genes of interest were normalized to the expression of house keeping genes and were compared to a control condition with no treatment. The relative induction was calculated by 2-ΔΔCt.
# Transfection: For RNA interference assays, human monocytes were transfected using an Amaxa Nucleofector kit (Lonza) with a greater than 40% transfection efficiency. siRNAs were obtained from Qiagen. The target sequence of human LAIR1-11 is […] (SEQ ID NO:9). The efficiency of knockdown was determined by flow cytometry and q-PCR.
# (§2) Cytokine analysis: Cytokine levels were measured using a Human Proinflammatory 7-plex assay following the manufacturer's protocols (Meso Scale Discovery (MSD). MSD plates were analyzed on the MS2400 imager (MSD). All standards and samples were run in duplicates.
# human monocytes [2] = test: SeaHorse cellular flux assay (OCR, ECAR); assay type: cell-based; details: C1q 25 μg ml-1 together with HMGB1 3 μg/ml, 24 h
# Procedure: Cell metabolism analysis using SeaHorse Cellular Flux assay. […] One hour prior to measurement, culture medium was exchanged for assay medium (unbuffered DMEM (Sigma), supplemented with 10 mM Glucose, 1 mM Pyruvate and 2 mM Glutamine for mitochondrial assays, or with 2 mM Glutamine alone for glycolytic assays. Reagents were injected during the measurement to achieve final concentrations of oligomycin (1 μM), carbonyl cyanide p-(trifluoromethoxy) phenylhydrazone (FCCP) ([…]), Rotenone/antimycin A (0.5 μM). Glucose (10 mM), and 2-Deoxy-D glucose (50 mM). Oxygen consumption rate (OCR) and Extracellular acidification rate (ECAR) values were measured using a SeaHorse XfP instrument (SeaHorse bioscience). Measured values were normalized to the number of live cells present in each well as determined by a trypan blue staining by the end of each run. For OCR/ECAR ratio calculations, an average of the last two basal readings was used for both OCR and ECAR.
# RAGE = target: T1, RAGE (Homo sapiens, UniProt Q15109); test: SPR assay of C1q and RAGE binding; details: read-out: KD of C1q and RAGE binding, 25° C., 1:1 binding ratio supposed
# T1 construct: purchased R&D Systems
# T1 sequence (Q15109 23-342 limits assumed): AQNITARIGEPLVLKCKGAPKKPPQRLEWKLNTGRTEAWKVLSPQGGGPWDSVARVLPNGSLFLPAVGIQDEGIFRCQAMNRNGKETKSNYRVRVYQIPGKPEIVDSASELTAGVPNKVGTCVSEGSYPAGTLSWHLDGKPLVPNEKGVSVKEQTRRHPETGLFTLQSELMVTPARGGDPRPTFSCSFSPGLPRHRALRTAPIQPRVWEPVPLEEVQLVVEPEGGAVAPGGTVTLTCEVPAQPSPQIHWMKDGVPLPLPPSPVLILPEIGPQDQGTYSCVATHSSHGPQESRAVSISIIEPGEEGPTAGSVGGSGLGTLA
# Procedure: Surface Plasmon Resonance analysis (SPR): For real-time binding interaction studies, a BIAcore T200 instrument (GE Healthcare) was used. […] A 1:1 mixture of N-hydroxysuccinimide and N-ethyl-N-(dimethyaminopropyl) carbodiimide was used to activate 2 flow-cells of the CMS chip. […] The analytes were diluted in 1×PBS+0.01% (vol/vol) tween-20 buffer. The analytes were sequentially injected at a flow rate of 30 μl/min for 60 s at 25° C. The KD was dertermined using the BIAcore evaluation software 2.0 (GE Healthcare) supposing a 1:1 binding ratio.
# human monocytes [3] = test: Induction of anti-inflammatory molecules / M2-like phenotype (Mer, PDL-1, IL-10, CD163) in monocytes; assay type: cell-based
# Procedure: as §1
# RT-PCR analysis and primers: Total RNA was extracted from cells (1-2×10^6 cells per sample) with an RNeasy kit (Qiagen, Venlo, Limburg, Netherlands) and cDNA was generated using an iScript cDNA synthesis kit (Bio-Rad laboratories). […] The relative induction was calculated by 2-ΔΔCt.
# as §2
# Flow cytometry: Cells were suspended in staining buffer containing 2% BSA and incubated with Fc block (Miltenyi Biotec) for 15 min on ice. […] Events were acquired using either an LSRII or Fortessa cell analyzer (BD Biosciences), and data were analyzed using FlowJo (Tree star).
# [4] = C1q 25 μg/ml, HMGB1 3 μg/ml, 6 h
substance,measurement,setting,value
"C1q: C1q purified from pooled normal human sera, obtained from Complement Technology","HMGB1-induced IFN, IL-6 and TNFα in adherent cell fraction of PBMCs",human monocytes [1]; [4],inhibited this HMGB1-mediated activation
same,HMGB1-mediated cytokine induction in monocytes treated with LAIR-1-specific siRNA,human monocytes [1]; [4],no effect
same,HMGB1-induced monocyte activation in the presence of soluble decoy receptor LAIR-2,"human monocytes [1]; C1q 25 μg/ml, LAIR-2 20 μg/ml, HMGB1 3 μg/ml, 6 h",failed to inhibit monocyte activation
same,transcription of cytokine genes in the absence of HMGB1,"human monocytes [1]; C1q alone, serum free medium",did not alter transcription
same,"monocyte activation by HMGB1, C1q levels commonly present in SLE patients",human monocytes [1]; C1q ˜25-50 μg/ml,less inhibitory
same,HMGB1-mediated cytokine transcription and protein induction,"human monocytes [1]; HMGB1 3 μg/ml, various C1q concentrations, serum free medium, 6 h mRNA, 24 h protein",counteracted the HMGB1-mediated cytokine transcription and protein induction in a dose-dependent manner
same,inhibitory effect of C1q at increased HMGB1 level,human monocytes [1]; HMGB1 10 μg ml-1,abrogated the inhibitory effect of C1q
same,"monocyte activation by HMGB1, physiologic levels of C1q",human monocytes [1]; physiologic C1q levels,effectively blocked monocyte activation
same,HMGB1-induced alteration in cellular metabolism,human monocytes [2],prevented the alteration in cellular metabolism
same,Kd,RAGE,855 nM
same,"potency of physiologic C1q levels versus SLE levels (25-50 μg/ml) for Mer, PDL-1, IL-10, CD163 mRNA","human monocytes [3]; C1q 10, 25, 50 or 75 μg/ml with HMGB1, 24 h",more potent
same,"transcription and protein expression of anti-inflammatory factors (Mer, PDL-1, IL-10, CD163)","human monocytes [3]; together with HMGB1 3 μg/ml, C1q 25 μg/ml or C1q tail 53 μg/ml, 24 h",induced the transcription and protein expression of a variety of anti-inflammatory factors
